Test results as given in patent US10654847B2, “Substituted 2-(4-heterocyclylbenzyl)isoindolin-1-one analogs as positive allosteric modulators of the muscarinic acetylcholine receptor M1” (Vanderbilt University, priority 2011, dated 2020).

Biological target: T1, mAChR M1 (UniProt P11229)
T1 sequence (P11229 1-460): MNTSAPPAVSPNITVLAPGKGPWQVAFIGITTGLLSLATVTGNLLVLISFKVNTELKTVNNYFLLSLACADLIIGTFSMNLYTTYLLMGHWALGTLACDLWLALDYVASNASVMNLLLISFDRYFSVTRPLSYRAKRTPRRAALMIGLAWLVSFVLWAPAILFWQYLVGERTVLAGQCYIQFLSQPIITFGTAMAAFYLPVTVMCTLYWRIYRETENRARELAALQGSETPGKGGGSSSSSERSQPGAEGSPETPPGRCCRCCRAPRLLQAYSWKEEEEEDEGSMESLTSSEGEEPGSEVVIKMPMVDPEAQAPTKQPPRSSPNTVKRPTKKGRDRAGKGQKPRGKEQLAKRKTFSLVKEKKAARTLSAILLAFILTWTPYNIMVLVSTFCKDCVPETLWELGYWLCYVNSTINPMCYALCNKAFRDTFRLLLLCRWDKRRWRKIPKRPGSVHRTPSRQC
Assay: mAChR M1 cell-based functional assay (calcium mobilization, potentiation of EC20 acetylcholine response)
Details: for Emax (%): % ACh maximum at 30 μM, mAChR M1-expressing CHO-K1 cells, calcium flux; for pEC50 / EC50: positive allosteric modulation of EC20 ACh response, mAChR M1 CHO-K1 cells; for pEC50: <5 estimated where no plateau; for EC50: >10 μM estimated where no plateau, read-out: EC50
Description: Chinese hamster ovary (CHO-K1) cells stably expressing rat (r)M1 were purchased from the American Type Culture Collection and cultured according to their indicated protocol. […] To make stable rM2, hM2, rM3, hM4, and rM4 cell lines for use in calcium mobilization assays, these cells also were stably transfected with a chimeric G-protein (Gqi5) (provided by B. R. Conklin, University of California, San Francisco) using Lipofectamine 2000. rM1, hM1, rM3, hM3, rM5, and hM5 cells were grown in Ham's F-12 medium containing 10% heat-inactivated fetal bovine serum (FBS), 20 mM HEPES, and 50 μg/mL G418 sulfate. rM2-Gqi5, hM2-Gqi5, and hM4-Gqi5 cells were grown in the same medium also containing 500 μg/mL Hygromycin B. Stable rM4-Gqi5 cells were grown in DMEM containing 10% heat-inactivated FBS, 20 mM HEPES, 400 μg/mL G418 sulfate, and 500 μg/mL Hygromycin B.
For high throughput measurement of agonist-evoked increases in intracellular calcium, CHO-K1 cells stably expressing muscarinic receptors were plated in growth medium lacking G418 and hygromycin at 15,000 cells/20 μL/well in Greiner 384-well black-walled, tissue culture (TC)-treated, clear-bottom plates (VWR). Cells were incubated overnight at 37° C. and 5% CO2. […] Compound master plates were formatted in an 11 point CRC format (1:3 dilutions) in 100% DMSO with a starting concentration of 10 mM using the BRAVO liquid handler (Agilent). Test compound CRCs were then transferred to daughter plates (240 nL) using the Echo acoustic plate reformatter (Labcyte, Sunnyvale, Calif.) and then diluted into assay buffer (40 μL) to a 2× stock using a Thermo Fisher Combi (Thermo Fisher Scientific, Waltham, Mass.).
Calcium flux was measured using the Functional Drug Screening System (FDSS) 6000 (Hamamatsu Corporation, Tokyo, Japan) as an increase in the fluorescent static ratio. Compounds were applied to cells (20 μL, 2×) using the automated system of the FDSS 6000 at 4 s into the 300 s protocol and the data were collected at 1 Hz. […] Agonist activity was analyzed as a concentration-dependent increase in calcium mobilization upon compound addition. Positive allosteric modulator activity was analyzed as a concentration-dependent increase in the EC20 acetylcholine response. Antagonist activity was analyzed as a concentration-dependent decrease in the EC80 acetylcholine response. Concentration-response curves were generated using a four-parameter logistical equation in XLfit curve fitting software (IDBS, Bridgewater, N.J.) for Excel (Microsoft, Redmond, Wash.) or Prism (GraphPad Software, Inc., San Diego, Calif.).
The above described assay was also operated in a second mode where an appropriate fixed concentration of the present compounds were added to the cells after establishment of a fluorescence baseline for about 3 seconds, and the response in cells was measured. […] Data were reduced as described above and the EC50 values for the agonist in the presence of test compound were determined by nonlinear curve fitting. A decrease in the EC50 value of the agonist with increasing concentrations of the present compounds (a leftward shift of the agonist concentration-response curve) is an indication of the degree of muscarinic positive allosteric modulation at a given concentration of the present compound. An increase in the EC50 value of the agonist with increasing concentrations of the present compounds (a rightward shift of the agonist concentration response curve) is an indication of the degree of muscarinic antagonism at a given concentration of the present compound. The second mode also indicates whether the present compounds also affect the maximum response of the muscarinic receptor to agonists.
The calcium mobilization assay was also used to determine “efficacy”.

| Compound | Emax (%) | pEC50 | EC50 [µM] |
| --- | --- | --- | --- |
| O=C1c2cccnc2CN1Cc1c(F)cc(-c2ccc3ncccc3c2)cc1F [Example B96] | 54 | 6.56 | 0.275 |
| O=C1c2cccnc2CN1Cc1ccc(-c2ccncc2)cc1F [Example B41] | 70 | 5.33 | 4.68 |
| Cn1cnc2ccc(-c3ccc(CN4Cc5ncccc5C4=O)c(F)c3)cc21 [Example B54] | 81 | 6.13 | 0.741 |
| Cn1cnc2ccc(-c3cc(F)c(CN4Cc5ncccc5C4=O)c(F)c3)cc21 [Example B82] | 72 | 6.40 | 0.398 |
| Cn1cc2cc(-c3ccc(CN4Cc5ncccc5C4=O)c(F)c3)ccc2n1 [Example B1] | 82 | 5.96 | 1.1 |
| O=C1c2cccnc2CN1Cc1c(F)cc(-c2cccc3ncccc23)cc1F [Example B95] | 53 | <5.00 | > 10 |
| O=C1c2cccnc2CN1Cc1ccc(-c2ccc3cn[nH]c3c2)cc1F [Example B40] | 70 | 6.13 | 0.741 |
| Cc1cc(-c2cnc(Cl)c(C)c2)ccc1CN1Cc2cccnc2C1=O [Example B83] | 34 | <5.00 | > 10 |
| COc1cncc(-c2ccc(CN3Cc4ncccc4C3=O)c(F)c2)c1 [Example B43] | 47 | <5.00 | > 10 |
| CC1c2ccccc2C(=O)N1Cc1ccc(-c2cnn(C)c2)cc1F (stereo not drawn) [Example B113] | <30 | <5.00 | > 10 |
| O=C1c2cccnc2CN1Cc1ccc(-c2cccc3ncccc23)cc1F [Example B42] | 41 | 5.44 | 3.63 |
| Cc1nc(-c2ccc(CN3Cc4ccccc4S3(=O)=O)cc2)cs1 [Example B116] | <30 | <5.00 | > 10 |
| Cn1cc(-c2ccc(CN3Cc4cccnc4C3=O)c(F)c2)cn1 [Example B25] | 66 | <5.00 | > 10 |
| CC(c1ccc(-c2cnn(C)c2)cc1F)N1Cc2ccccc2C1=O (stereo not drawn) [Example B13, 2-(1-(2-fluoro-4-(1-methyl-1H-pyrazol-4-yl)phenyl)ethyl)isoindolin-1-one] | 35 | <5.00 | > 10 |
| O=S1(=O)c2ccccc2CN1Cc1ccc(-n2cccc2)cc1 [Example B125] | <30 | <5.00 | > 10 |
| Cn1ccc2ccc(-c3ccc(CN4Cc5ccccc5C4=O)c(F)c3)cc21 [Example B10] | 62 | 5.51 | 3.1 |
| Cn1ncc2cc(-c3ccc(CN4Cc5ncccc5C4=O)c(F)c3)ccc21 [Example B27] | 58 | 6.1 | 0.794 |
| CN(C)c1ccc(-c2ccc(CN3Cc4ncccc4C3=O)c(F)c2)cc1 [Example B52] | 53 | <5.00 | > 10 |
| Cn1ncc2ccc(-c3ccc(CN4Cc5ccccc5C4=O)c(F)c3)cc21 [Example B24] | 64 | <5.00 | > 10 |
| CSc1ncc(-c2ccc(CN3Cc4ccccc4C3=O)c(F)c2)cn1 [Example B122] | <30 | <5.00 | > 10 |
| Cn1cc(-c2cnc(CN3Cc4ccccc4C3=O)c(F)c2)cn1 [Example B21] | 43 | <5.00 | > 10 |

| Compound | Emax (%) | pEC50 | EC50 [µM] |
| --- | --- | --- | --- |
| O=C1c2ccccc2CN1Cc1ccc(-c2ccncc2)cc1F [Example B11] | 71 | 5.47 | 3.4 |
| Cn1cc(-c2cnc(CN3Cc4cccnc4C3=O)c(F)c2)cn1 [Example B20] | 43 | <5.00 | > 10 |
| O=C1c2ccccc2CN1Cc1ccc(-c2ccc3cc[nH]c3c2)cc1F [Example B121] | <30 | <5.00 | > 10 |
| O=S1(=O)c2ccccc2CN1Cc1ccc(-n2cccn2)cc1 [Example B115] | <30 | <5.00 | > 10 |
| Cc1cc(-c2cccnc2)ccc1CN1Cc2cccnc2C1=O [Example B85] | 41 | <5.00 | > 10 |
| O=C1c2ncccc2CN1Cc1ccc(-c2ccc3cnccc3c2)cc1Cl [Example B69] | 52 | 5.87 | 1.35 |
| O=C1c2cccnc2CN1Cc1ccc(-c2ccc3[nH]ncc3c2)cc1F [Example B36] | 58 | 6.28 | 0.525 |
| COc1cc(-c2cccc3nn(C)cc23)ccc1CN1Cc2ncccc2C1=O [Example B104] | 70 | 5.82 | 1.51 |
| Cn1cc(-c2ccc(CN3Cc4ccccc4C3=O)nc2)cn1 [Example B15] | 37 | <5.00 | > 10 |
| O=C1c2ncccc2CN1Cc1ccc(-c2ccncc2)cc1Cl [Example B68] | 56 | <5.00 | > 10 |
| O=C1c2ccccc2CN1Cc1ccc(-n2ccnc2)cc1F [Example B22] | 51 | <5.00 | > 10 |
| Cn1cc(-c2ccc(CN3Cc4ccccc4C3=O)c(C(F)(F)F)c2)cn1 [Example B12] | 36 | 5.42 | 3.8 |
| Cn1cc2c(n1)CCN(c1ccc(CN3Cc4ncccc4C3=O)c(F)c1)C2 [Example B112] | 32 | <5.00 | > 10 |
| Cn1cc2cc(-c3cc(F)c(CN4Cc5ncccc5C4=O)cc3F)ccc2n1 [Example B105] | 69 | 6.39 | 0.407 |
| O=C1c2ccccc2CN1Cc1ccc(-c2ccc3cnccc3c2)cc1F [Example B6] | 38 | 5.59 | 2.6 |
| Cc1cc(-c2ccc(CN3Cc4ncccc4C3=O)c(F)c2)cnc1Cl [Example B46] | 33 | 5.99 | 1.02 |
| Cn1cc2cc(-c3cc(F)c(CN4Cc5ncccc5C4=O)c(F)c3)ccc2n1 [Example B51] | 73 | 6.59 | 0.257 |
| O=C1c2cccnc2CN1Cc1ccc(-c2ccnc3ccccc23)cc1F [Example B45] | 44 | 5.43 | 3.72 |
| O=C1c2ncccc2CN1Cc1ccc(-c2cccnc2)cc1Cl [Example B67] | 56 | 5.28 | 5.25 |
| Cn1ccc2cc(-c3ccc(CN4Cc5ncccc5C4=O)c(F)c3)ccc21 [Example B127] | <30 | <5.00 | > 10 |
